From ChEMBL document CHEMBL3616440, “Non-basic azolotriazinone MCHR1 antagonists for the treatment of obesity: An empirical brain-exposures-driven candidate selection for in vivo efficacy studies” (Bioorg Med Chem Lett, 2015)

Assays:
Nucleic Acid [1] = assay: Ratio of drug level in Sprague-Dawley rat brain to plasma assessed as (S)-6-(5-chloropyrimidin-2-yl)-3-(4-(3-(ethylsulfonyl)-2-hydroxypropoxy)-3-methoxyphenyl)pyrrolo[1,2-f][1,2,4]triazin-4(3H)-one level at 10 mg/kg, po qd; type: ADME, organism-based
Brain [2] = assay: Drug concentration in Sprague-Dawley rat brain assessed as (S)-6-(5-chloropyrimidin-2-yl)-3-(4-(3-(ethylsulfonyl)-2-hydroxypropoxy)-3-methoxyphenyl)pyrrolo[1,2-f][1,2,4]triazin-4(3H)-one level at 10 mg/kg, po qd at 8 hrs; type: ADME, organism-based; details: in vivo, read-out: Drug uptake
Plasma [3] = assay: Plasma concentration in Sprague-Dawley rat assessed as (S)-6-(5-chloropyrimidin-2-yl)-3-(4-(3-(ethylsulfonyl)-2-hydroxypropoxy)-3-methoxyphenyl)pyrrolo[1,2-f][1,2,4]triazin-4(3H)-one level at 10 mg/kg, po qd at 8 hrs; type: ADME, organism-based; details: in vivo
Brain [4] = assay: Drug concentration in Sprague-Dawley rat brain assessed as 6-(5-chloropyridin-2-yl)-3-(4-((3,3-difluoro-1-hydroxycyclobutyl)methoxy)-3-methoxyphenyl)pyrrolo[1,2-f][1,2,4]triazin-4(3H)-one level at 30 mg/kg, po qd at 20 hrs; type: ADME, organism-based; details: in vivo, read-out: Drug uptake
Brain [5] = assay: Drug concentration in Sprague-Dawley rat brain assessed as 6-(5-chloropyridin-2-yl)-3-(4-((3,3-difluoro-1-hydroxycyclobutyl)methoxy)-3-methoxyphenyl)pyrrolo[1,2-f][1,2,4]triazin-4(3H)-one level at 3 mg/kg, po qd at 20 hrs; type: ADME, organism-based; details: in vivo, read-out: Drug uptake
Brain [6] = assay: Free drug level in Sprague-Dawley rat brain assessed as 6-(5-chloropyridin-2-yl)-3-(4-((3,3-difluoro-1-hydroxycyclobutyl)methoxy)-3-methoxyphenyl)pyrrolo[1,2-f][1,2,4]triazin-4(3H)-one level at 30 mg/kg, po qd at 20 hrs; type: ADME, organism-based; details: in vivo
Brain [7] = assay: Drug concentration in Sprague-Dawley rat brain assessed as 6-(5-chloropyridin-2-yl)-3-(4-((3,3-difluoro-1-hydroxycyclobutyl)methoxy)-3-methoxyphenyl)pyrrolo[1,2-f][1,2,4]triazin-4(3H)-one level at 10 mg/kg, po qd at 8 hrs; type: ADME, organism-based; details: in vivo, read-out: Drug uptake
[8] = Ratio of free drug level in brain of Sprague-Dawley rat assessed as 6-(5-chloropyridin-2-yl)-3-(4-((3,3-difluoro-1-hydroxycyclobutyl)methoxy)-3-methoxyphenyl)pyrrolo[1,2-f][1,2,4]triazin-4(3H)-one level at 10 mg/kg, po to Ki for rat MCHR1; type: ADME, organism-based; details: in vivo
Plasma [9] = assay: Fraction unbound in Sprague-Dawley rat plasma assessed as 6-(5-chloropyridin-2-yl)-3-(4-((3,3-difluoro-1-hydroxycyclobutyl)methoxy)-3-methoxyphenyl)pyrrolo[1,2-f][1,2,4]triazin-4(3H)-one level; type: ADME, cell-free
Nucleic Acid [10] = assay: Ratio of drug level in Sprague-Dawley rat brain to plasma assessed as 6-(5-chloropyridin-2-yl)-3-(4-((3,3-difluoro-1-hydroxycyclobutyl)methoxy)-3-methoxyphenyl)pyrrolo[1,2-f][1,2,4]triazin-4(3H)-one level at 10 mg/kg, po qd; type: ADME, organism-based
[11] = Ratio of free drug level in brain of Sprague-Dawley rat assessed as 6-(5-chloropyridin-2-yl)-3-(4-((3,3-difluoro-1-hydroxycyclobutyl)methoxy)-3-methoxyphenyl)pyrrolo[1,2-f][1,2,4]triazin-4(3H)-one level at 30 mg/kg, po to Ki for rat MCHR1; type: ADME, organism-based; details: in vivo
Rattus norvegicus [12] = assay: Antiobesity activity in Sprague-Dawley rat assessed as body weight reduction at 30 mg/kg, po qd after 4 days relative to control; type: functional; details: 96 h
Brain [13] = assay: Free drug level in Sprague-Dawley rat brain assessed as 6-(5-chloropyridin-2-yl)-3-(4-((3,3-difluoro-1-hydroxycyclobutyl)methoxy)-3-methoxyphenyl)pyrrolo[1,2-f][1,2,4]triazin-4(3H)-one level at 10 mg/kg, po qd at 20 hrs; type: ADME, organism-based; details: in vivo
[14] = Ratio of free drug level in brain of Sprague-Dawley rat assessed as 6-(5-chloropyridin-2-yl)-3-(4-((3,3-difluoro-1-hydroxycyclobutyl)methoxy)-3-methoxyphenyl)pyrrolo[1,2-f][1,2,4]triazin-4(3H)-one level at 3 mg/kg, po to Ki for rat MCHR1; type: ADME, organism-based; details: in vivo
Brain [15] = assay: Free drug level in Sprague-Dawley rat brain assessed as 6-(5-chloropyridin-2-yl)-3-(4-((3,3-difluoro-1-hydroxycyclobutyl)methoxy)-3-methoxyphenyl)pyrrolo[1,2-f][1,2,4]triazin-4(3H)-one level at 3 mg/kg, po qd at 20 hrs; type: ADME, organism-based; details: in vivo
Rattus norvegicus [16] = assay: Antiobesity activity in Sprague-Dawley rat assessed as body weight reduction at 10 mg/kg, po qd after 4 days relative to control; type: functional; details: 96 h
Rattus norvegicus [17] = assay: Antiobesity activity in Sprague-Dawley rat assessed as body weight reduction at 3 mg/kg, po qd after 4 days relative to control; type: functional; details: 96 h
Plasma [18] = assay: Plasma concentration in Sprague-Dawley rat assessed as 6-(5-chloropyridin-2-yl)-3-(4-((3,3-difluoro-1-hydroxycyclobutyl)methoxy)-3-methoxyphenyl)pyrrolo[1,2-f][1,2,4]triazin-4(3H)-one level at 10 mg/kg, po qd at 8 hrs; type: ADME, organism-based; details: in vivo
Brain [19] = assay: Drug concentration in Sprague-Dawley rat brain assessed as 6-(5-chloropyridin-2-yl)-3-(4-((3,3-difluoro-1-hydroxycyclobutyl)methoxy)-3-methoxyphenyl)pyrrolo[1,2-f][1,2,4]triazin-4(3H)-one level at 10 mg/kg, po qd at 20 hrs; type: ADME, organism-based; details: in vivo, read-out: Drug uptake
[20] = Ratio of free drug level in brain of Sprague-Dawley rat assessed as 6-(4-chlorophenyl)-3-(4-(2-cyclopropyl-2-hydroxyethoxy)-3-methoxyphenyl)pyrrolo[1,2-f][1,2,4]triazin-4(3H)-one level at 30 mg/kg, po to Ki for rat MCHR1; type: ADME, organism-based; details: in vivo
Brain [21] = assay: Drug concentration in Sprague-Dawley rat brain assessed as 6-(4-chlorophenyl)-3-(4-(2-cyclopropyl-2-hydroxyethoxy)-3-methoxyphenyl)pyrrolo[1,2-f][1,2,4]triazin-4(3H)-one level at 30 mg/kg, po qd at 20 hrs; type: ADME, organism-based; details: in vivo, read-out: Drug uptake
Plasma [22] = assay: Fraction unbound in Sprague-Dawley rat plasma assessed as 6-(4-chlorophenyl)-3-(4-(2-cyclopropyl-2-hydroxyethoxy)-3-methoxyphenyl)pyrrolo[1,2-f][1,2,4]triazin-4(3H)-one level; type: ADME, cell-free
Nucleic Acid [23] = assay: Ratio of drug level in Sprague-Dawley rat brain to plasma assessed as 6-(4-chlorophenyl)-3-(4-(2-cyclopropyl-2-hydroxyethoxy)-3-methoxyphenyl)pyrrolo[1,2-f][1,2,4]triazin-4(3H)-one level at 10 mg/kg, po qd; type: ADME, organism-based
Brain [24] = assay: Drug concentration in Sprague-Dawley rat brain assessed as 6-(4-chlorophenyl)-3-(4-(2-cyclopropyl-2-hydroxyethoxy)-3-methoxyphenyl)pyrrolo[1,2-f][1,2,4]triazin-4(3H)-one level at 3 mg/kg, po qd at 20 hrs; type: ADME, organism-based; details: in vivo, read-out: Drug uptake
Brain [25] = assay: Free drug level in Sprague-Dawley rat brain assessed as 6-(4-chlorophenyl)-3-(4-(2-cyclopropyl-2-hydroxyethoxy)-3-methoxyphenyl)pyrrolo[1,2-f][1,2,4]triazin-4(3H)-one level at 10 mg/kg, po qd at 20 hrs; type: ADME, organism-based; details: in vivo
Plasma [26] = assay: Plasma concentration in Sprague-Dawley rat assessed as 6-(4-chlorophenyl)-3-(4-(2-cyclopropyl-2-hydroxyethoxy)-3-methoxyphenyl)pyrrolo[1,2-f][1,2,4]triazin-4(3H)-one level at 10 mg/kg, po qd at 8 hrs; type: ADME, organism-based; details: in vivo
Brain [27] = assay: Drug concentration in Sprague-Dawley rat brain assessed as 6-(4-chlorophenyl)-3-(4-(2-cyclopropyl-2-hydroxyethoxy)-3-methoxyphenyl)pyrrolo[1,2-f][1,2,4]triazin-4(3H)-one level at 10 mg/kg, po qd at 20 hrs; type: ADME, organism-based; details: in vivo, read-out: Drug uptake
Brain [28] = assay: Drug concentration in Sprague-Dawley rat brain assessed as 6-(4-chlorophenyl)-3-(4-(2-cyclopropyl-2-hydroxyethoxy)-3-methoxyphenyl)pyrrolo[1,2-f][1,2,4]triazin-4(3H)-one level at 10 mg/kg, po qd at 8 hrs; type: ADME, organism-based; details: in vivo, read-out: Drug uptake
Brain [29] = assay: Free drug level in Sprague-Dawley rat brain assessed as 6-(4-chlorophenyl)-3-(4-(2-cyclopropyl-2-hydroxyethoxy)-3-methoxyphenyl)pyrrolo[1,2-f][1,2,4]triazin-4(3H)-one level at 30 mg/kg, po qd at 20 hrs; type: ADME, organism-based; details: in vivo
Brain [30] = assay: Free drug level in Sprague-Dawley rat brain assessed as 6-(4-chlorophenyl)-3-(4-(2-cyclopropyl-2-hydroxyethoxy)-3-methoxyphenyl)pyrrolo[1,2-f][1,2,4]triazin-4(3H)-one level at 3 mg/kg, po qd at 20 hrs; type: ADME, organism-based; details: in vivo
[31] = Ratio of free drug level in brain of Sprague-Dawley rat assessed as 6-(4-chlorophenyl)-3-(4-(2-cyclopropyl-2-hydroxyethoxy)-3-methoxyphenyl)pyrrolo[1,2-f][1,2,4]triazin-4(3H)-one level at 10 mg/kg, po to Ki for rat MCHR1; type: ADME, organism-based; details: in vivo
[32] = Ratio of free drug level in brain of Sprague-Dawley rat assessed as 6-(4-chlorophenyl)-3-(4-(2-cyclopropyl-2-hydroxyethoxy)-3-methoxyphenyl)pyrrolo[1,2-f][1,2,4]triazin-4(3H)-one level at 3 mg/kg, po to Ki for rat MCHR1; type: ADME, organism-based; details: in vivo
Nucleic Acid [33] = assay: Ratio of drug level in Sprague-Dawley rat brain to plasma assessed as 6-(5-chloropyrimidin-2-yl)-3-(4-(2-hydroxy-2-methylpropoxy)-3-methoxyphenyl)pyrrolo[1,2-f][1,2,4]triazin-4(3H)-one level at 5 mg/kg, po qd; type: ADME, organism-based
Plasma [34] = assay: Plasma concentration in Sprague-Dawley rat assessed as 6-(5-chloropyrimidin-2-yl)-3-(4-(2-hydroxy-2-methylpropoxy)-3-methoxyphenyl)pyrrolo[1,2-f][1,2,4]triazin-4(3H)-one level at 5 mg/kg, po qd at 8 hrs; type: ADME, organism-based; details: in vivo
Brain [35] = assay: Drug concentration in Sprague-Dawley rat brain assessed as 6-(5-chloropyrimidin-2-yl)-3-(4-(2-hydroxy-2-methylpropoxy)-3-methoxyphenyl)pyrrolo[1,2-f][1,2,4]triazin-4(3H)-one level at 5 mg/kg, po qd at 8 hrs; type: ADME, organism-based; details: in vivo, read-out: Drug uptake

CCS(=O)(=O)C[C@H](COc1ccc(-n2cnn3cc(-c4ncc(Cl)cn4)cc3c2=O)cc1OC)OC(=O)CN
BPR (Nucleic Acid [1]): 0.03
concentration (Brain [2]): 0.125 µM
concentration (Plasma [3]): 3.96 µM

COc1cc(-n2cnn3cc(-c4ccc(Cl)cn4)cc3c2=O)ccc1OCC1(OC(=O)CN)CC(F)(F)C1
concentration (Brain [4]): 23.9 µM
concentration (Brain [5]): 3.87 µM
Drug uptake(free) (Brain [6]): 624 nM
concentration (Brain [7]): 3.59 µM
Ratio [8]: <= 2.5
Fu (Plasma [9]): <= 0.1%
BPR (Nucleic Acid [10]): 0.6
Ratio [11]: <= 3.7
inhibition in vivo at 30 mg/kg (Rattus norvegicus [12]): 13%
Drug uptake(free) (Brain [13]): 616 nM
Ratio [14]: <= 0.6
Drug uptake(free) (Brain [15]): 63.9 nM
inhibition in vivo at 10 mg/kg (Rattus norvegicus [16]): 4.4%
inhibition in vivo at 3 mg/kg (Rattus norvegicus [17]): 1.6%
concentration (Plasma [18]): 5.59 µM
concentration (Brain [19]): 16 µM

COc1cc(-n2cnn3cc(-c4ccc(Cl)cc4)cc3c2=O)ccc1OCC(OC(=O)[C@@H](N)C(C)C)C1CC1 (stereo partly drawn)
Ratio [20]: 16
concentration (Brain [21]): 14.8 µM
Fu (Plasma [22]): 0.3%
BPR (Nucleic Acid [23]): 3
concentration (Brain [24]): 3.42 µM
Drug uptake(free) (Brain [25]): 24 nM
concentration (Plasma [26]): 1.25 µM
concentration (Brain [27]): 7.98 µM
concentration (Brain [28]): 3.74 µM
inhibition in vivo at 30 mg/kg (Rattus norvegicus [12]): 2.5%
Drug uptake(free) (Brain [29]): 44 nM
Drug uptake(free) (Brain [30]): 10 nM
inhibition in vivo at 10 mg/kg (Rattus norvegicus [16]): 0%
inhibition in vivo at 3 mg/kg (Rattus norvegicus [17]): 0%
Ratio [31]: 8.6
Ratio [32]: 3.6

COc1cc(-n2cnn3cc(-c4ncc(Cl)cn4)cc3c2=O)ccc1OCC(C)(C)OC(=O)CN
BPR (Nucleic Acid [33]): 0.5
concentration (Plasma [34]): 2.71 µM
concentration (Brain [35]): 1.43 µM
